In US20230023092A1, “TREATMENT OF DEPRESSION AND OTHER VARIOUS DISORDERS WITH PSILOCYBIN” (COMPASS […], priority 2019, published 2023):

System: healthy subjects
Assay: Phase 1 study: adverse events (TEAEs, MedDRA coded)
Assay type: in vivo, human
Procedure: A Phase 1 randomized, double-blind, placebo-controlled study to evaluate the effect of psilocybin on cognitive and emotional processing as compared to placebo in healthy volunteers was conducted. The study investigated the short-term (Day 7) and long-term (Day 28) effects of moderate (10 mg) and high doses (25 mg) of psilocybin on key domains of cognition, such as episodic memory, attention, working and spatial memory, social cognition and elements of executive function, including cognitive flexibility.
Each subject was assigned 1 treatment bottle containing 5 capsules packaged in a double-blind fashion, depending on the randomized treatment arm, the bottle contained one of the following: • a. Psilocybin 10 mg: 2×5-mg oral psilocybin capsules plus 3×placebo capsules • b. Psilocybin 25 mg: 5×5-mg oral psilocybin capsules • c. Placebo: 5×placebo capsules
Each 5-mg oral psilocybin capsules comprised 5 mg crystalline psilocybin in the form or Polymorph A, 12.5 mg of SMCC 50, 79.5 mg of SMCC 90, 1 mg sodium starch glycolate, 1 mg colloidal silicon dioxide, and 1 mg sodium stearyl fumarate
Adverse events: Throughout the course of the study, all AEs were monitored and recorded. Each AE was classified according to the following criteria: • i. […] Moderate: The AE produces some impairment of functioning, but is not hazardous to the subject's health. • iii. Severe: The AE produces significant impairment of functioning or incapacitation and is a definite hazard to the subject's health.
Visit 3 (V3): Drug Administration (Day 0): The subject was asked to eat a light breakfast at least two hours prior to coming to the clinic for study drug administration. On Day 0 (V3), the subject underwent the SSTS, had vital signs obtained, medications reviewed, AEs recorded and eligibility reviewed prior to being randomized to study drug. The study drug was administered to up to six subjects simultaneously in individual beds separated by a curtain. The subject was invited to put on eyeshades and headphones, lie down and listen to calming music for the rest of the session (six hours). The subject was supported 1:1 with a chaperone and supervised by the study psychiatrist and lead therapist.
During administration of psilocybin, each subject received one-on-one support from a trained assisting therapist and each dosing session was supervised by a study psychiatrist and a lead therapist. The study drug was administered simultaneously to up to six participants as a single 5-capsule oral dose (10 mg psilocybin: 2×5-mg psilocybin capsules plus 3×placebo capsules; 25 mg psilocybin: 5×5-mg psilocybin capsules; placebo: 5×placebo capsules). Twenty-five dosing sessions were completed, with up to six participants dosed simultaneously per session. Each session lasted approximately 6 to 8 hours with subjects encouraged to relax and engage in introspection for the duration. After the acute effects of the study drug had subsided, subjects were discharged.

CN(C)CCc1c[nH]c2cccc(OP(=O)(O)O)c12 [Psilocybin, psilocybin]
Hypoaesthesia, worst severity Moderate, N (%) (10 mg oral): 0 | Hypoaesthesia, worst severity Severe, Events (10 mg oral): 0 | Hypoaesthesia, worst severity Severe, N (%) (10 mg oral): 0 | Illusion, Events (10 mg oral): 25 | Illusion, N (%) (10 mg oral): 19 (63.3) | Illusion, worst severity Mild, Events (10 mg oral): 7 | Illusion, worst severity Mild, N (%) (10 mg oral): 7 (23.3) | Illusion, worst severity Moderate, Events (10 mg oral): 16 | Illusion, worst severity Moderate, N (%) (10 mg oral): 12 (40.0) | Illusion, worst severity Severe, Events (10 mg oral): 0 | Illusion, worst severity Severe, N (%) (10 mg oral): 0 | Infections and infestations, Events (10 mg oral): 4 | Infections and infestations, N (%) (10 mg oral): 4 (13.3) | Infections and infestations, worst severity Mild, Events (10 mg oral): 2 | Infections and infestations, worst severity Mild, N (%) (10 mg oral): 2 (6.7) | Infections and infestations, worst severity Moderate, Events (10 mg oral): 2 | Infections and infestations, worst severity Moderate, N (%) (10 mg oral): 2 (6.7) | Infections and infestations, worst severity Severe, Events (10 mg oral): 0 | Infections and infestations, worst severity Severe, N (%) (10 mg oral): 0 | Investigations, Events (10 mg oral): 2 | Investigations, N (%) (10 mg oral): 2 (6.7) | Investigations, worst severity Mild, Events (10 mg oral): 2 | Investigations, worst severity Mild, N (%) (10 mg oral): 2 (6.7) | Investigations, worst severity Moderate, Events (10 mg oral): 0 | Investigations, worst severity Moderate, N (%) (10 mg oral): 0 | Investigations, worst severity Severe, Events (10 mg oral): 0 | Investigations, worst severity Severe, N (%) (10 mg oral): 0 | Memory impairment, Events (10 mg oral): 1 | Memory impairment, N (%) (10 mg oral): 1 (3.3) | Mental fatigue, Events (10 mg oral): 0 | Mental fatigue, N (%) (10 mg oral): 0 | Mood altered, Events (10 mg oral): 23 | Mood altered, N (%) (10 mg oral): 13 (43.3) | Mood altered, worst severity Mild, Events (10 mg oral): 2 | Mood altered, worst severity Mild, N (%) (10 mg oral): 2 (6.7) | Mood altered, worst severity Moderate, Events (10 mg oral): 8 | Mood altered, worst severity Moderate, N (%) (10 mg oral): 5 (16.7) | Mood altered, worst severity Severe, Events (10 mg oral): 9 | Mood altered, worst severity Severe, N (%) (10 mg oral): 6 (20.0) | Musculoskeletal and connective tissue disorders, Events (10 mg oral): 1 | Musculoskeletal and connective tissue disorders, N (%) (10 mg oral): 1 (3.3) | Musculoskeletal and connective tissue disorders, worst severity Mild, Events (10 mg oral): 0 | Musculoskeletal and connective tissue disorders, worst severity Mild, N (%) (10 mg oral): 0 | Musculoskeletal and connective tissue disorders, worst severity Moderate, Events (10 mg oral): 1 | Musculoskeletal and connective tissue disorders, worst severity Moderate, N (%) (10 mg oral): 1 (3.3) | Musculoskeletal and connective tissue disorders, worst severity Severe, Events (10 mg oral): 0 | Musculoskeletal and connective tissue disorders, worst severity Severe, N (%) (10 mg oral): 0 | Nausea, Events (10 mg oral): 1 | Nausea, N (%) (10 mg oral): 1 (3.3) | Nervous system disorders, Events (10 mg oral): 35 | Nervous system disorders, N (%) (10 mg oral): 21 (70.0) | Nervous system disorders, worst severity Mild, Events (10 mg oral): 23 | Nervous system disorders, worst severity Mild, N (%) (10 mg oral): 15 (50.0) | Nervous system disorders, worst severity Moderate, Events (10 mg oral): 8 | Nervous system disorders, worst severity Moderate, N (%) (10 mg oral): 6 (20.0) | Nervous system disorders, worst severity Severe, Events (10 mg oral): 0 | Nervous system disorders, worst severity Severe, N (%) (10 mg oral): 0 | Paraesthesia, Events (10 mg oral): 4 | Paraesthesia, N (%) (10 mg oral): 4 (13.3) | Paraesthesia, worst severity Mild, Events (10 mg oral): 4 | Paraesthesia, worst severity Mild, N (%) (10 mg oral): 4 (13.3) | Paraesthesia, worst severity Moderate, Events (10 mg oral): 0 | Paraesthesia, worst severity Moderate, N (%) (10 mg oral): 0 | Paraesthesia, worst severity Severe, Events (10 mg oral): 0 | Paraesthesia, worst severity Severe, N (%) (10 mg oral): 0 | Psychiatric disorders, Events (10 mg oral): 121 | Psychiatric disorders, N (%) (10 mg oral): 27 (90.0) | Psychiatric disorders, worst severity Mild, Events (10 mg oral): 6 | Psychiatric disorders, worst severity Mild, N (%) (10 mg oral): 4 (13.3) | Psychiatric disorders, worst severity Moderate, Events (10 mg oral): 29 | Psychiatric disorders, worst severity Moderate, N (%) (10 mg oral): 13 (43.3) | Psychiatric disorders, worst severity Severe, Events (10 mg oral): 21 | Psychiatric disorders, worst severity Severe, N (%) (10 mg oral): 10 (33.3) | Psychomotor skills impaired, Events (10 mg oral): 1 | Psychomotor skills impaired, N (%) (10 mg oral): 1 (3.3) | Respiratory, thoracic and mediastinal disorders, Events (10 mg oral): 0 | Respiratory, thoracic and mediastinal disorders, N (%) (10 mg oral): 0 | Selected TEAE: Nervous system disorders, Events (10 mg oral): 2 | Selected TEAE: Nervous system disorders, N (%) (10 mg oral): 2 (6.7) | Selected TEAE: Psychiatric disorders, Events (10 mg oral): 104 | Selected TEAE: Psychiatric disorders, N (%) (10 mg oral): 27 (90.0) | Somatic hallucination, Events (10 mg oral): 8 | Somatic hallucination, N (%) (10 mg oral): 8 (26.7) | Somatic hallucination, worst severity Mild, Events (10 mg oral): 1 | Somatic hallucination, worst severity Mild, N (%) (10 mg oral): 1 (3.3) | Somatic hallucination, worst severity Moderate, Events (10 mg oral): 7 | Somatic hallucination, worst severity Moderate, N (%) (10 mg oral): 7 (23.3) | Somatic hallucination, worst severity Severe, Events (10 mg oral): 0 | Somatic hallucination, worst severity Severe, N (%) (10 mg oral): 0 | Substance-induced psychotic disorder, Events (10 mg oral): 0 | Substance-induced psychotic disorder, N (%) (10 mg oral): 0 | Tension headache, Events (10 mg oral): 3 | Tension headache, N (%) (10 mg oral): 3 (10.0) | Tension headache, worst severity Mild, Events (10 mg oral): 1 | Tension headache, worst severity Mild, N (%) (10 mg oral): 1 (3.3) | Tension headache, worst severity Moderate, Events (10 mg oral): 2 | Tension headache, worst severity Moderate, N (%) (10 mg oral): 2 (6.7) | Tension headache, worst severity Severe, Events (10 mg oral): 0 | Tension headache, worst severity Severe, N (%) (10 mg oral): 0 | Time perception altered, Events (10 mg oral): 2 | Time perception altered, N (%) (10 mg oral): 2 (6.7) | Time perception altered, worst severity Mild, Events (10 mg oral): 1 | Time perception altered, worst severity Mild, N (%) (10 mg oral): 1 (3.3) | Time perception altered, worst severity Moderate, Events (10 mg oral): 1 | Time perception altered, worst severity Moderate, N (%) (10 mg oral): 1 (3.3) | Time perception altered, worst severity Severe, Events (10 mg oral): 0 | Time perception altered, worst severity Severe, N (%) (10 mg oral): 0 | Adverse events reported by % of subjects (10 mg oral, 12-week study): 96.7% | Reported 'Mood altered' events: Being less judgmental (number) (10 mg psilocybin (n = 30)): 1 | Reported 'Mood altered' events: Calm (number) (10 mg psilocybin (n = 30)): 0 | Reported 'Mood altered' events: Clarity of thought (number) (10 mg psilocybin (n = 30)): 0 | Reported 'Mood altered' events: Contemplative state (number) (10 mg psilocybin (n = 30)): 1 | Reported 'Mood altered' events: Feeling more moody/sensitive (number) (10 mg psilocybin (n = 30)): 1 | Reported 'Mood altered' events: Feeling of adrenaline release (number) (10 mg psilocybin (n = 30)): 0 | Reported 'Mood altered' events: Feeling rested (number) (10 mg psilocybin (n = 30)): 1 | Reported 'Mood altered' events: Increased compassion (number) (10 mg psilocybin (n = 30)): 0 | Reported 'Mood altered' events: Increased creativity (number) (10 mg psilocybin (n = 30)): 0 | Reported 'Mood altered' events: Increased empathy (number) (10 mg psilocybin (n = 30)): 2 | Reported 'Mood altered' events: Increased sense of connectedness (number) (10 mg psilocybin (n = 30)): 0 | Reported 'Mood altered' events: Increased wit (number) (10 mg psilocybin (n = 30)): 1 | Reported 'Mood altered' events: Introspection (number) (10 mg psilocybin (n = 30)): 5 | Reported 'Mood altered' events: Laughter (number) (10 mg psilocybin (n = 30)): 1 | Reported 'Mood altered' events: More socially upbeat (number) (10 mg psilocybin (n = 30)): 0 | Reported 'Mood altered' events: Negative mood (number) (10 mg psilocybin (n = 30)): 0 | Reported 'Mood altered' events: Reflections (number) (10 mg psilocybin (n = 30)): 3 | Reported 'Mood altered' events: Saw themselves from a new perspective (number) (10 mg psilocybin (n = 30)): 0 | Reported 'Mood altered' events: Sense of oneness (number) (10 mg psilocybin (n = 30)): 4 | Reported 'Mood altered' events: Sense of openness (number) (10 mg psilocybin (n = 30)): 1 | Reported 'Mood altered' events: Unusual appreciation of music (number) (10 mg psilocybin (n = 30)): 0 | AEs deemed potentially related to study treatment, % of AEs of the arm (25 mg oral): 95.9% | Affect lability, Events (25 mg oral): 3
